Laboratory results reported in patent publication US20120022149A1, “PHARMACEUTICAL COMPOSITION WITH ENHANCED SOLUBILITY CHARACTERISTICS” (priority 2010, published 2012).

Assay: Solubility of olopatadine in PEG 6000 and/or PVP vehicles
Type: physicochemical
Conditions: Table 1 and FIG. 1

solubility of olopatadine relative to the concentration of PEG6000: essentially linear
SMILES: CN(C)CC/C=C1/c2ccccc2COc2ccc(CC(=O)O)cc21 [olopatadine]
